Results: ChEMBL document CHEMBL1127196, “The use of synthetic peptide combinatorial libraries for the determination of peptide ligands in radio-receptor assays: Opioid peptides” (Bioorg Med Chem Lett, 1993)

molecular target: Mu-type opioid receptor (Rattus norvegicus, UniProt P33535); experiment: Concentration required for 50% inhibition of [3H]DAGO binding to mu opioid receptor in crude rat brain homogenates; type: tissue-based
Sequence (P33535 whole entry): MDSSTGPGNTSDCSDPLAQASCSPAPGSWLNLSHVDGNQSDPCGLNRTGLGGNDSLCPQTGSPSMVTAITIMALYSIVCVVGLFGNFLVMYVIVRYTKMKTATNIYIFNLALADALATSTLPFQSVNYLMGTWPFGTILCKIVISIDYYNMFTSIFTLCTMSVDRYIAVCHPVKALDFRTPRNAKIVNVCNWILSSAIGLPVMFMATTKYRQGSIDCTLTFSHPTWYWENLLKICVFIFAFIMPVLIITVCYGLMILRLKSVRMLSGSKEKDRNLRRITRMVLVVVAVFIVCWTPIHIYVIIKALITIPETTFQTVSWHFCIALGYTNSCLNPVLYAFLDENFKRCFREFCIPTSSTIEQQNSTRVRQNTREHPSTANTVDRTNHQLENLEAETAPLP

In order of falling IC50:
1. H-YGGFLF-NH2  381 nM
2. H-YGGFLE-NH2  315 nM
3. H-YGGFMF-NH2  223 nM
4. H-YGGFLD-NH2  214 nM
5. H-YGGFME-NH2  204 nM
6. H-YGGFLK-NH2  201 nM
7. H-YGGFLV-NH2  189 nM
8. H-YGGFLI-NH2  168 nM
9. H-YGGFMD-NH2  167 nM
10. H-YGGFLR-NH2  158 nM
11. H-YGGFLH-NH2  141 nM
12. H-YGGFLM-NH2  112 nM
13. H-YGGFLP-NH2  108 nM
14. CSCC[C@H](NC(=O)[C@H](Cc1ccccc1)N(N)C(=O)CNC(=O)CN(N)C(=O)[C@H](Cc1ccc(ON)cc1)NN)C(=O)N[C@H](C(N)=O)C(C)C  107 nM
15. H-YGGFLL-NH2  98 nM
16. H-YGGFMI-NH2  80 nM
17. H-YGGFLN-NH2  78 nM
18. H-YGGFLY-NH2  77 nM
19. H-YGGFLQ-NH2  75 nM
20. H-YGGFLS-NH2  65 nM
21. H-YGGFLT-NH2  65 nM
22. H-YGGFLA-NH2  60 nM
23. H-YGGFLG-NH2  59 nM
24. H-YGGFMP-NH2  57 nM
25. H-YGGFMR-NH2  46 nM
26. H-YGGFMK-NH2  41 nM
27. H-YGGFMT-NH2  41 nM
28. H-YGGFMQ-NH2  40 nM
29. H-YGGFMY-NH2  39 nM
30. H-YGGFMH-NH2  37 nM
31. H-YGGFMG-NH2  35 nM
32. H-YGGFML-NH2  35 nM
33. CSCC[C@H](NC(=O)[C@H](Cc1ccccc1)NC(O)CNC(=O)CNC(=O)[C@@H](N)Cc1ccc(O)cc1)C(N)=O (some centres not stated)  34 nM
34. H-YGGFMS-NH2  34 nM
35. H-YGGFMM-NH2  30 nM
36. H-YGGFMA-NH2  28 nM
37. H-YGGFMN-NH2  28 nM
